Measured values published in PubChem BioAssay (NCI).
Several values for one entry are separate records, joined by “and”; a condition that tells them apart may be missing. Equal values may be shown once.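 Assay format: 96-well plates, 48-hour exposure. TGI marks complete inhibition of growth.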

Legend:
Assay in all cases: NCI anticancer screen, dose series, 48 h
[1] = test system: HS 578T breast
[2] = test system: HL-60(TB) leukemia
[3] = test system: T-47D breast
[4] = test system: MDA-N
[5] = test system: RPMI-8226 leukemia
[6] = test system: MDA-MB-435
[7] = test system: HOP-62 NSCLC
[8] = test system: ACHN renal
[9] = test system: HCT-15 colon
[10] = test system: 786-0 renal
[11] = test system: SF-539 CNS

Row | SMILES | TGI [1] [µM] | TGI [2] [µM] | TGI [3] [µM] | TGI [4] [µM] | TGI [5] [µM] | TGI [6] [µM] | TGI [7] | TGI [8] [µM] | TGI [9] [µM] | TGI [10] [µM] | TGI [11] [µM]
1 | CCn1c(CCCc2nc3c([nH]2)c(=O)n(C)c(=O)n3C)nc2c1c(=O)n(C)c(=O)n2C | > 100 | > 100 | > 100 | > 100 | > 100 | > 100 | > 100 µM | > 100 | > 100 | > 100 | 30.5
2 | N=c1ncn(C/C=C/c2ccccc2)c2nc[nH]c12 | > 100 |  | > 100 | > 100 | > 100 | > 100 | > 100 µM | > 100 | > 100 | > 100 | > 100
3 | O=[N+]([O-])c1c(O)c2nonc2c2nn(-c3ccccc3)nc12 | > 100 | > 100 | > 100 | > 100 | > 100 | > 100 | > 100 µM | > 100 | > 100 | > 100 | > 100
4 | O=C(CC(=O)N1N=C(c2ccccc2)C(N=Nc2ccc(S(=O)(=O)CCOS(=O)(=O)O)cc2)C1=O)Nc1ccc(Cl)cc1 (stereo not given) | 99.6 | > 100 | > 100 | > 100 | > 100 | > 100 | > 100 µM | > 100 | > 100 | > 100 | > 100
5 | Cc1cc2nc3c(C#N)c(C)c(CCCl)c(Cl)n3c2cc1C | > 29.6 | 5.57 | 8.9 | 6.12 | 5.49 | 4.92 | 4.64 µM | 11.1 | 3.85 | 3.69 | 5.09
6 | Cc1ccc(/C=c2\c(=O)[nH]c3nc4ccccc4c(=O)n23)cc1 | > 100 | > 100 | > 100 | 62.2 | > 100 | 60.5 | > 100 µM | > 100 | > 100 | > 100 | 43.7
7 | O=C(CCCCCNC(=O)c1ccc(Cl)cc1)NO | > 100 | 16.1 | 5.14 | 10.8 | > 100 | 31.3 |  | 41.6 | > 100 | 39 | > 100
8 | O=C(O)C(Cc1ccccc1)Cc1ccccc1 | > 100 | > 100 | > 100 | > 100 | > 100 | > 100 | > 100 µM | > 100 | > 100 | > 100 | > 100
9 | CCCCCCCCCCCC(=O)N(CCCCCCCCC)CC(O)C(O)C(OC1OC(CO)C(O)C(O)C1O)C(O)CO (stereo not given) | > 100 | 45.8 | 44.3 | 38.4 | 57.1 | 32 | 38.9 µM | 32.1 | 34.5 | 32.8 | 50.8
10 | O/N=C1\C/C(=N\O)c2c(Br)sc(Br)c21 | 30.9 | > 100 | > 100 | > 100 |  | > 100 | > 100 µM | > 100 | 41.7 | > 100 | > 100
11 | Cc1nc(N)c(N2CCN(S(=O)(=O)N(Cc3ccccc3)Cc3ccccc3)CC2)c(=O)[nH]1 | 69.8 | > 100 | 59.7 | > 100 | > 100 | 88.8 | 83.5 µM | 85.1 | > 100 | > 100 | 80.6
12 | CCOc1ccccc1N=NC1C(=O)N(C(=O)CC(=O)Nc2ccccc2C)N=C1C (stereo not given) | 31.5 | > 100 | > 100 | > 100 | > 100 | > 100 | 41.5 µM | > 100 | > 100 | > 100 | > 100
13 | CCOC(=O)c1ccc2nc3n(c2c1)C(c1c(F)cccc1F)SC3 (stereo not given) | > 100 | > 100 | > 100 | > 100 | > 100 | > 100 | > 100 µM | > 100 | > 100 | > 100 | > 100
14 | CC1(C)CCCCCC(O)C(O)CCC(C)(C)C1=O (stereo not given) | > 100 | > 100 | > 100 | > 100 | > 100 | > 100 | > 100 µM | > 100 | > 100 | > 100 | > 100
15 | N#Cc1ccc(-c2ccc(Cl)cc2)n(C2OC(CO)C(O)C(O)C2O)c1=S (stereo not given) | > 100 | > 100 | > 100 | > 100 | > 100 |  | > 100 µM and 36.3 µM | > 100 | > 100 | > 100 | > 100
16 | NC(=Nc1ccccc1)N/N=C/c1c[nH]c2ccccc12 | 2.17 | 4.54 | 6.89 | 0.0405 | 46 | 0.0649 | 9.47 µM | 16.1 | 10.1 | 7.68 | 1.92
17 | CSc1nnnc2ccccc12 | > 100 | > 100 | > 100 | > 100 | > 100 | > 100 | > 100 µM | > 100 | > 100 | > 100 | > 100
18 | COc1cc(C(c2ccccc2)N2C(=O)CC[C@H]2C(=O)O)cc(OC)c1OC (stereo not given in full) | > 100 | > 100 | > 100 | > 100 | > 100 | > 100 | > 100 µM | > 100 | > 100 | > 100 | > 100
19 | CCOC(=O)c1nc2ccccc2nc1Nc1ccc(C(=O)OC)s1 | > 100 | > 100 | > 100 | > 100 | > 100 | > 100 | > 100 µM | > 100 | > 100 | > 100 | > 100
20 | CC1CN(c2cc3c(cc2F)c(=O)c(C(=O)O)cn3-c2ccc(N3CCN(C)CC3)cn2)CC(C)N1 (stereo not given) | > 100 | > 100 | > 100 | > 100 | > 100 | > 100 | > 100 µM |  | > 100 | > 100 | > 100
